From patent US7829499B2, “Granular pesticide preparation” (Kumiai Chemical Industry Co., Ltd., priority 2003, dated 2010)

Assay: pKa of the pesticidal active ingredient
Type: physicochemical
Text: When the acidic pesticidal active ingredient having the above specified pKa is used, the pKa of the ingredient is, for example, measured by a method described in “Jikken Kagaku Kouza”, Vol. 5 (thermal measurement and equilibrium), p. 469-p. 474, Maruzen Co., Ltd. published Jan. 20, 1958 and elsewhere.

CCc1cccc(C(O)c2nc(OC)cc(OC)n2)c1NS(=O)(=O)C(F)F (centres unmarked) [compound B, 2-[(4,6-dimethoxypyrimidin-2-yl)hydroxymethyl]-6-ethyl-N-difluoromethanesulfonyl anilide]
pKa: 6.17

COCc1cccc(C(O)c2nc(OC)cc(OC)n2)c1NS(=O)(=O)C(F)F (centres unmarked) [compound A, 2-[(4,6-dimethoxypyrimidin-2-yl)hydroxymethyl]-6-methoxymethyl-N-difluoromethanesulfonyl anilide]
pKa: 5.75
